Key:
Assay in all cases: Kinase profiling in a biochemical assay panel (mobility shift assays and ELISA), %-inhibition at 1 μM; selectivity entropy
[1] = biological target: T1, panel of more than 300 wild-type and mutant kinases (313 kinase panel) (Homo sapiens, UniProt Q9H093); settings: kinase NuaK2; 1 μM
T1 sequence (Q9H093 1-628): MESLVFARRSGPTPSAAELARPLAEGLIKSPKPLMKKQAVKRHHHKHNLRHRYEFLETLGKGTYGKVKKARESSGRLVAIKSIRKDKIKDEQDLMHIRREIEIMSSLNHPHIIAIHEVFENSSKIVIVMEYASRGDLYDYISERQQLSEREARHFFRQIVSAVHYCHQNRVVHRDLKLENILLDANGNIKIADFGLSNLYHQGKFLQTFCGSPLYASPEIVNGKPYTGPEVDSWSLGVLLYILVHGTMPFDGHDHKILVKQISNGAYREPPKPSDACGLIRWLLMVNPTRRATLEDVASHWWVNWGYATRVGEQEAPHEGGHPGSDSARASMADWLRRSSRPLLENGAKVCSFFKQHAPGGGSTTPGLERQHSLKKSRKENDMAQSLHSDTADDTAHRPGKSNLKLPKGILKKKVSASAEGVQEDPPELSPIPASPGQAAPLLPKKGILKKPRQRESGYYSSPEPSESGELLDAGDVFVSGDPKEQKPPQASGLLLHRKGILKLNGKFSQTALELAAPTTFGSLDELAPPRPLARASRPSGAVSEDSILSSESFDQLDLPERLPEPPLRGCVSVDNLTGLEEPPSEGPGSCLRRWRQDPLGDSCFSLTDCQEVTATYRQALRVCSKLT

[2] = biological target: panel of more than 300 wild-type and mutant kinases (313 kinase panel) (Homo sapiens, UniProt Q02763); settings: kinase TIE2; 1 μM
Chain of panel of more than 300 wild-type and mutant kinases (313 kinase panel) (Homo sapiens, UniProt Q02763) (Q02763 23-1124, change not shown): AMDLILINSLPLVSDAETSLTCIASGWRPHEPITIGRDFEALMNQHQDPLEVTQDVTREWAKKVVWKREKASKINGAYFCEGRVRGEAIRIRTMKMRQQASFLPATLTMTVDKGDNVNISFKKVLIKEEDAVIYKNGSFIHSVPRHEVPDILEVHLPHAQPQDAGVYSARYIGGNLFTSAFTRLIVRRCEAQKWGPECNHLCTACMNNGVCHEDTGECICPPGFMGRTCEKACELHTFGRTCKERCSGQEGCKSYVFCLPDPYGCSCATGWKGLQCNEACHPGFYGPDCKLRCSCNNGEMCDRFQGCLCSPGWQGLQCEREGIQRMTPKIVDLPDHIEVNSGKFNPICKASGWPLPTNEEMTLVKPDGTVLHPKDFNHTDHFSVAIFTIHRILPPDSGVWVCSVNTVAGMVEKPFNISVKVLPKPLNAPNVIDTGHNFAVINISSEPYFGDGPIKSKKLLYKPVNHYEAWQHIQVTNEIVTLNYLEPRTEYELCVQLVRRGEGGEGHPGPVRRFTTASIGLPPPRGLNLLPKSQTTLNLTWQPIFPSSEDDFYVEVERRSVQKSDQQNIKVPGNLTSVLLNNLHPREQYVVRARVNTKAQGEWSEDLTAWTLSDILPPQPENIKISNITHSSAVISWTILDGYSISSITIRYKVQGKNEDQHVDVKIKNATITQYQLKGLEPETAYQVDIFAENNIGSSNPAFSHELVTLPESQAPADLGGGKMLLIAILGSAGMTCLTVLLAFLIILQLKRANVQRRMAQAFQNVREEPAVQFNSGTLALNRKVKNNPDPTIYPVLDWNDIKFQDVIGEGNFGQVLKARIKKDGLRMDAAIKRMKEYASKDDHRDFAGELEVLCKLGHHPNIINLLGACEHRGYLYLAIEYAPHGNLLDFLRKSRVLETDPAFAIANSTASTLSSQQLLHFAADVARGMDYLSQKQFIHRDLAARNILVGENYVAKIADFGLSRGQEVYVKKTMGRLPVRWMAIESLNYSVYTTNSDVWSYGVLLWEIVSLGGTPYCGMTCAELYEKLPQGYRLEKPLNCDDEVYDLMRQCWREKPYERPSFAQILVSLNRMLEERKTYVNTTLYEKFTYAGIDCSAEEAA

[3] = biological target: T2, panel of more than 300 wild-type and mutant kinases (313 kinase panel) (Homo sapiens, UniProt Q8NE63); settings: kinase HIPK4; compound at 1 μM
T2 sequence (Q8NE63 1-616): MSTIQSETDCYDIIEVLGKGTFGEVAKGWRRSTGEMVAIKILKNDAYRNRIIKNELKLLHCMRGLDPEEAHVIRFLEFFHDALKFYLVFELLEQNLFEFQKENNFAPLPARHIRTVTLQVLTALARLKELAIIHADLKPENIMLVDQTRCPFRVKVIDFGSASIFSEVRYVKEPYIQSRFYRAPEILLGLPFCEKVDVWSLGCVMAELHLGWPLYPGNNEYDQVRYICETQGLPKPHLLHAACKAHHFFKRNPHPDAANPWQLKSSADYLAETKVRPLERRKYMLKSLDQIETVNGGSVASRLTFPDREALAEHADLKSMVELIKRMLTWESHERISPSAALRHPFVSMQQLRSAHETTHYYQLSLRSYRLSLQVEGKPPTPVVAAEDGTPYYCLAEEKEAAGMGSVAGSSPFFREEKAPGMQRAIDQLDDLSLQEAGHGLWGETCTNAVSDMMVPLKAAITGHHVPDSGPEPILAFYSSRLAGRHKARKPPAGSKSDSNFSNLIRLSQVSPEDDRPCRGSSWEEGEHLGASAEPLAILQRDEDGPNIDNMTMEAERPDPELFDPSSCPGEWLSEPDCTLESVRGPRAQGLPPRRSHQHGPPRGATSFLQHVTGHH

[4] = biological target: panel of more than 300 wild-type and mutant kinases (313 kinase panel) (Homo sapiens, UniProt Q05655); settings: kinase PKCδ; 1 μM
[5] = biological target: panel of more than 300 wild-type and mutant kinases (313 kinase panel) (Homo sapiens, UniProt Q13464); settings: kinase ROCK1; 1 μM
[6] = biological target: panel of more than 300 wild-type and mutant kinases (313 kinase panel) (Homo sapiens, UniProt Q9H4A3); settings: kinase WNK1; compound at 1 μM
Chain of panel of more than 300 wild-type and mutant kinases (313 kinase panel) (Homo sapiens, UniProt Q9H4A3) (Q9H4A3 whole entry, change not shown): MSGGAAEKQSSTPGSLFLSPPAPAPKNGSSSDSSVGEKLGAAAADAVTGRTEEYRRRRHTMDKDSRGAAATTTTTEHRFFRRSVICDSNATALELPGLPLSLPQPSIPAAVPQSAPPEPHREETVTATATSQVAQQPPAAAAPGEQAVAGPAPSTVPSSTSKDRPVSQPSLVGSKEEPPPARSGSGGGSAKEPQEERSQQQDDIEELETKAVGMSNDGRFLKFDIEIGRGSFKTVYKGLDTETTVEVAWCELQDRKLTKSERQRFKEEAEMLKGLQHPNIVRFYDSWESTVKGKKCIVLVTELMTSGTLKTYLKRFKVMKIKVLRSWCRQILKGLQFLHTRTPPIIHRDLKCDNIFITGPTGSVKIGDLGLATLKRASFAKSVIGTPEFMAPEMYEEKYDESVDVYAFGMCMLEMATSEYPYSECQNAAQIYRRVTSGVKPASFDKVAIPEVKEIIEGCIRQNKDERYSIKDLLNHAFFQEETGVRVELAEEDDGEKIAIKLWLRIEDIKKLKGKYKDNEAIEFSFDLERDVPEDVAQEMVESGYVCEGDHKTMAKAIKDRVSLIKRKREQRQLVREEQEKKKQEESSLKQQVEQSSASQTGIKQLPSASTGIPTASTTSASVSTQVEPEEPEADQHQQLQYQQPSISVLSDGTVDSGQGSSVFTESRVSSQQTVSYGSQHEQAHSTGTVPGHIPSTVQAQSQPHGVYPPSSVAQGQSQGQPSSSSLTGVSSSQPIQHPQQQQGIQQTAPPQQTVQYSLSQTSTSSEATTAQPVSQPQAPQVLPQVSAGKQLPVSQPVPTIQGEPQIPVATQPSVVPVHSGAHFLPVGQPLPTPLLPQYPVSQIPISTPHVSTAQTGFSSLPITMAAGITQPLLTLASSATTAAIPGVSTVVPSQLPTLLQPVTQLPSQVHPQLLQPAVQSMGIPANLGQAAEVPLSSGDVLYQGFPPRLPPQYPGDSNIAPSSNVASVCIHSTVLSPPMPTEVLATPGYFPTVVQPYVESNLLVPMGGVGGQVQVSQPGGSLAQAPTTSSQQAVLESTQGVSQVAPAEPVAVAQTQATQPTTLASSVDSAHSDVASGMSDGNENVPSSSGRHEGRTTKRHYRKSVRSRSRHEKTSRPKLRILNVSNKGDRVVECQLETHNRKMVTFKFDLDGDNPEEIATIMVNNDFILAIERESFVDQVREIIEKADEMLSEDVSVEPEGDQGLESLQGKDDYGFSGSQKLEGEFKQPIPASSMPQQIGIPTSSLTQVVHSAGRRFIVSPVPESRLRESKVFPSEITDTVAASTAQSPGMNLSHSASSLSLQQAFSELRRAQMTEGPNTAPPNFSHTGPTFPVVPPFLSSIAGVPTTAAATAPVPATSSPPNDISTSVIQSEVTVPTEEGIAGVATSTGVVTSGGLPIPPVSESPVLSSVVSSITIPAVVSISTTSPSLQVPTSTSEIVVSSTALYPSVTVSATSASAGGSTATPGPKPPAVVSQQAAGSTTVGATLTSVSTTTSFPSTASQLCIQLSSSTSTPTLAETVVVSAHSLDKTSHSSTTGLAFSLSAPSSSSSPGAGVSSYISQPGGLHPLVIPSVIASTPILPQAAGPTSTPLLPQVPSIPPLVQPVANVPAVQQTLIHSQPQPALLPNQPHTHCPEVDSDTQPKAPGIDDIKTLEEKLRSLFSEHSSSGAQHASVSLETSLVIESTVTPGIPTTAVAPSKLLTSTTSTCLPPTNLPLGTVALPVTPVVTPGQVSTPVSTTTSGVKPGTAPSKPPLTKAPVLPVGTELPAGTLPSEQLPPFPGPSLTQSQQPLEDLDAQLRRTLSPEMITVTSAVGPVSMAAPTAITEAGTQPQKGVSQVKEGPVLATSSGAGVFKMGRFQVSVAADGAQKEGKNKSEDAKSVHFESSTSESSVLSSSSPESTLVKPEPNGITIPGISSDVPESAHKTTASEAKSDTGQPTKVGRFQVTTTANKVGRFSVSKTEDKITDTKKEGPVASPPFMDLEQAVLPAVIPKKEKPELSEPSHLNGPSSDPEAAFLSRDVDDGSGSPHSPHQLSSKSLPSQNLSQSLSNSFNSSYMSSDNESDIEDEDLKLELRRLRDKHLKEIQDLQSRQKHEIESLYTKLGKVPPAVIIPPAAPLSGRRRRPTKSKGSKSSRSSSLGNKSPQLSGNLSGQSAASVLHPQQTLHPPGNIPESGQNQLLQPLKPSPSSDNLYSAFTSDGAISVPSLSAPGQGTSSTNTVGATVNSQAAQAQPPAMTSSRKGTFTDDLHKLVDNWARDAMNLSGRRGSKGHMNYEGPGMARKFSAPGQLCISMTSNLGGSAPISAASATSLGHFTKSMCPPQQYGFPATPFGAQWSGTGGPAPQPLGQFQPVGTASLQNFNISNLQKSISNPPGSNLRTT

[7] = biological target: panel of more than 300 wild-type and mutant kinases (313 kinase panel) (Homo sapiens, UniProt Q9NQU5); settings: kinase PAK6; 1 μM
[8] = biological target: panel of more than 300 wild-type and mutant kinases (313 kinase panel) (Homo sapiens, UniProt P35916); settings: kinase FLT4; compound at 1 μM
[9] = biological target: T3, panel of more than 300 wild-type and mutant kinases (313 kinase panel) (Homo sapiens, UniProt Q8TDC3); settings: kinase BRSK1; 1 μM compound
T3 sequence (Q8TDC3 1-778): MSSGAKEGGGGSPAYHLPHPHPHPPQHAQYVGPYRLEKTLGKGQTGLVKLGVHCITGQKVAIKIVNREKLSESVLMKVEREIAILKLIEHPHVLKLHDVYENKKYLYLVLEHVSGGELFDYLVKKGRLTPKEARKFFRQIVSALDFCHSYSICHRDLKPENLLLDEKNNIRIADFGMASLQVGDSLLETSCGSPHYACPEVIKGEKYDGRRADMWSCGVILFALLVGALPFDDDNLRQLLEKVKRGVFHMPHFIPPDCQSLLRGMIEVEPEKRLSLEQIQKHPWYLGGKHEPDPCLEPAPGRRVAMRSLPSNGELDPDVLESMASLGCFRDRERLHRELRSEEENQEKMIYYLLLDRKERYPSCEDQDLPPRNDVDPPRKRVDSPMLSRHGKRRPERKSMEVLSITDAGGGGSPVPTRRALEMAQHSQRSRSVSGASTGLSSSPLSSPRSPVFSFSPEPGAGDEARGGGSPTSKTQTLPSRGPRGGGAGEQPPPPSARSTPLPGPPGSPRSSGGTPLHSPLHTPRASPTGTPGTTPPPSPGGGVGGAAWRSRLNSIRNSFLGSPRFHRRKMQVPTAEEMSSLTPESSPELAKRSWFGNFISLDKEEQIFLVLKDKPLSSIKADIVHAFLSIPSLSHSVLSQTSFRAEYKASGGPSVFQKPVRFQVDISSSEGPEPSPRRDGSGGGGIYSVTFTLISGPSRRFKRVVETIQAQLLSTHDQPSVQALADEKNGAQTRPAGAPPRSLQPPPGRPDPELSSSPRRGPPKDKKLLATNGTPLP

SMILES | %-inhibition of NuaK2 [1] | %-inhibition of TIE2 [2] | %-inhibition of HIPK4 [3] | %-inhibition of PKCδ [4] | %-inhibition of ROCK1 [5] | %-inhibition of WNK1 [6] | %-inhibition of PAK6 [7] | %-inhibition of FLT4 [8] | %-inhibition, BRSK1 [9]
CO[C@H]1C[C@@H]2CC[C@@H](C)[C@@](O)(O2)C(=O)C(=O)N2CCCC[C@H]2C(=O)O[C@H]([C@H](C)C[C@@H]2CC[C@@H](OCCO)[C@H](OC)C2)CC(=O)[C@H](C)/C=C(\C)[C@@H](O)[C@@H](OC)C(=O)[C@H](C)C[C@H](C)/C=C/C=C/C=C/1C [everolimus] | -0.726% | -3.66% | -6.34% | -10% | -3.7% | -5% | -1.22% | -0.439% | -9%
CCN(CC)CCNC(=O)c1c(C)[nH]c(/C=C2\C(=O)Nc3ccc(F)cc32)c1C [sunitinib] | – | – | – | – | 9% | – | – | – | –
CC(=O)Nc1cccc(-n2c(=O)n(C3CC3)c(=O)c3c(Nc4ccc(I)cc4F)n(C)c(=O)c(C)c32)c1 [trametinib] | 9% | -7% | 2.78% | -4.75% | 3.21% | -1.42% | 8% | 1.51% | -6%
O=S(=O)(c1cccc2cnccc12)N1CCCNCC1 [fasudil] | 20% | -10% | -0.779% | 19% | 83% | 3% | 8% | 5.61% | -0.211%
COc1cc2nccc(Oc3ccc(NC(=O)C4(C(=O)Nc5ccc(F)cc5)CC4)cc3)c2cc1OC [cabozantinib] | 1.63% | 90% | – | -0.835% | 1.28% | -1.85% | -4% | 100% | 3.24%
CC(C)(C)c1nc(-c2cccc(NS(=O)(=O)c3c(F)cccc3F)c2F)c(-c2ccnc(N)n2)s1 [dabrafenib] | 4.53% | 81% | 92% | -6% | – | 1.14% | 9% | 85% | 37%
C[C@@H](Oc1cc(-c2cnn(C3CCNCC3)c2)cnc1N)c1c(Cl)ccc(F)c1Cl [crizotinib] | 87% | – | 31% | -1.14% | 3.39% | -3% | 3% | 48% | 12%
Cc1ccc(C(=O)Nc2ccc(CN3CCN(C)CC3)c(C(F)(F)F)c2)cc1C#Cc1cnc2cccnn12 [ponatinib] | -13% | 101% | 96% | 50% | 39% | – | -3% | 101% | -8%
Cc1ccc(Nc2nccc(N(C)c3ccc4c(C)n(C)nc4c3)n2)cc1S(N)(=O)=O [pazopanib] | 2.81% | 26% | 22% | -3% | -1.24% | -3.67% | 5.54% | – | -1.05%
Cc1nc(Nc2ncc(C(=O)Nc3c(C)cccc3Cl)s2)cc(N2CCN(CCO)CC2)n1 [dasatinib] | 3% | – | – | – | – | – | – | 31% | –
COc1cc(Nc2c(C#N)cnc3cc(OCCCN4CCN(C)CC4)c(OC)cc23)c(Cl)cc1Cl [bosutinib] | 87% | 22% | – | 63% | 1.43% | – | -0.35% | 92% | -11%
